# Test results reported in US4772589A, “Etoposide solution in NMP” (Bristol-Myers, priority 1986, dated 1988).
# Legend:
# [1] = Etoposide solubility in various solvents; assay type: physicochemical
# Text: The high etoposide concentration achievable renders the solution useful as gelatin capsule fill. Table III compares the solubility of etoposide in various solvents.
# [2] = oral gelatin capsule vs IV; cited from earlier work
# [3] = Crystallization on dilution with water or parenteral vehicle
# [4] = water, ethanol, ether, chloroform, benzene, ethyl acetate, and carbon disulfide; cited from earlier work
SMILES,"solubility ([1]; 1-methyl-2-pyrrolidinone, organic solvent or mixture, solvent: 1-Methyl-2-pyrrolidinone) [mg/mL]","solubility ([1]; benzyl alcohol, organic solvent or mixture, solvent: Benzyl Alcohol) [mg/mL]","solubility ([1]; dimethylisosorbide, organic solvent or mixture, solvent: Dimethylisosorbide) [mg/mL]","solubility ([1]; ethanol, organic solvent or mixture, solvent: Ethanol) [mg/mL]","solubility ([1]; propylene glycol, organic solvent or mixture, solvent: Propylene Glycol) [mg/mL]","solubility ([1]; water, solvent: Water) [mg/mL]",Gelatin capsule dose relative to IV dose for equivalent blood level [2],"Crystallization on dilution with water ([3]; solution in 1-ethyl-2-pyrrolidinone, diluted with water to 0.5-5 mg/ml)","Crystallization on dilution with water ([3]; solution in 2-pyrrolidinone, diluted with water to 0.5-5 mg/ml)","Crystallization on dilution with water ([3]; solution in dimethylacetamide, diluted with water to 0.5-5 mg/ml)","Crystallization on dilution with water ([3]; solution in dimethylformamide, diluted with water to 0.5-5 mg/ml)","Crystallization on dilution with water ([3]; solution in dimethylisosorbide, diluted with water to 0.5-5 mg/ml)","Crystallization on dilution with water ([3]; solution in ethanol, diluted with water to 0.5-5 mg/ml)","Crystallization on dilution with water ([3]; solution in polyethylene glycol-300, diluted with water to 0.5-5 mg/ml)","Crystallization on dilution with water ([3]; solution in propylene glycol, diluted with water to 0.5-5 mg/ml)",Miscibility [4]
"COc1cc([C@@H]2c3cc4c(cc3[C@@H](O[C@@H]3O[C@@H]5CO[C@@H](C)O[C@H]5[C@H](O)[C@H]3O)[C@H]3COC(=O)[C@H]23)OCO4)cc(OC)c1O [etoposide, 4'-demethylepipodophyllotoxin-9-(4,6-O(R)-ethylidine-β-D-glucopyranoside)]",> 500,104,320,< 1,11,0.1,twice as high,rapid deposit of etoposide crystals,rapid deposit of etoposide crystals,rapid deposit of etoposide crystals,rapid deposit of etoposide crystals,rapid deposit of etoposide crystals,rapid deposit of etoposide crystals,rapid deposit of etoposide crystals,rapid deposit of etoposide crystals,–
"CN1CCCC1=O [1-Methyl-2-pyrrolidinone, 1-methyl-2-pyrrolidinone]",–,–,–,–,–,–,–,–,–,–,–,–,–,–,–,miscible
